Experimental data taken from patent publication US12018016B2, “Aryl sulfonyl (hydroxy) piperidines as CCR6 inhibitors” (CHEMOCENTRYX, INC., priority 2021, dated 2024).

Biological target: T1, human CCR6 (Homo sapiens, UniProt P51684)
T1 construct: expressed in transfected cells; host or cells: Ba/F3 cells (mouse pro-B line)
T1 sequence (P51684 1-374): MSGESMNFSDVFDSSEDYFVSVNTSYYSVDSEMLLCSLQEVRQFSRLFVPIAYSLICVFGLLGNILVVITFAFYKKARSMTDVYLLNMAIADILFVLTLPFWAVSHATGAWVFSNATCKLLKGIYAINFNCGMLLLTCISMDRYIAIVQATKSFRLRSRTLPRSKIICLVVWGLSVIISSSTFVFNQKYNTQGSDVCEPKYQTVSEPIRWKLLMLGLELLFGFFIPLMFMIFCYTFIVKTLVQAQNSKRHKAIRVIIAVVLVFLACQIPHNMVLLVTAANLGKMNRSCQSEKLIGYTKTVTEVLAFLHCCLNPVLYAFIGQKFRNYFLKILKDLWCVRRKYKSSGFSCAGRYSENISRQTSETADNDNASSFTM
Test: Migration assay (chemotaxis, ChemoTX)
Format: cell-based
Conditions: hCCR6-transfected Ba/F3 cells in human serum, migration to recombinant human CCL20 10 nM, 37° C. 45 minutes; read-out: Potency (IC50 value in the migration assay)
Method in brief: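 Ba/F3 cells transfected with human CCR6 and butyrate-primed for 24 h were suspended at 4 million/ml in human serum with compound, serially diluted from a 1 μM final top concentration. Cells migrated through a 5-μm polycarbonate membrane toward 10 nM human CCL20 for 45 min at 37 °C. Migrated cells were quantified by CyQUANT fluorescence.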

| Structure (SMILES) | IC50 |
| --- | --- |
| Cc1cncc(C)c1-c1ccc(S(=O)(=O)N2CC[C@@H](Nc3ccc(C(F)(F)F)cn3)[C@@H](O)C2)cc1 [Compound 185] | < 1 nM |
| CN(C)C(=O)N1Cc2ccc(-c3ccc(S(=O)(=O)N4CC[C@@H](Nc5ccc(C(F)(F)F)cn5)[C@@H](O)C4)cc3)cc2C1 [Compound 186] | < 1 nM |
| CNC(=O)N1Cc2ccc(-c3ccc(S(=O)(=O)N4CC[C@@H](Nc5ccc(C(F)(F)F)cn5)[C@@H](O)C4)cc3)cc2C1 [Compound 187] | < 1 nM |
| CNC(=O)N1Cc2cc(-c3ccc(S(=O)(=O)N4CC[C@@H](Nc5ccc(C(F)(F)F)cn5)[C@@H](O)C4)cc3)cc(C)c2C1 [Compound 188] | < 1 nM |
| O=S(=O)(c1ccc(-c2cnc3c(O)nccc3c2)cc1)N1CC[C@@H](Nc2ccc(C(F)(F)F)cn2)[C@@H](O)C1 [Compound 190] | < 1 nM |
| O=S(=O)(c1ccc(-c2cnc3[nH]nc(-c4ncc[nH]4)c3c2)cc1)N1CC[C@@H](Nc2ccc(C(F)(F)F)cn2)[C@@H](O)C1 [Compound 191] | < 1 nM |
| Cc1cc(C(F)(F)F)cnc1N[C@@H]1CCN(S(=O)(=O)c2ccc(-c3cnc4[nH]cc(C#N)c4c3)cc2)C[C@@H]1O [Compound 192] | < 1 nM |
| N#Cc1n[nH]c2ncc(-c3ccc(S(=O)(=O)N4CC[C@@H](Nc5ccc(C(F)(F)F)cn5)[C@@H](O)C4)cc3)cc12 [Compound 193] | < 1 nM |
| O=S(=O)(c1ccc(-c2nnc(N3CCOCC3)o2)cc1)N1CC[C@@H](Nc2ccc(C(F)(F)F)cn2)[C@@H](O)C1 [Compound 194] | 10 to 1000 nM |
| CN(C)c1cc(-c2ccc(S(=O)(=O)N3CC[C@@H](Nc4ccc(C(F)(F)F)cn4)[C@@H](O)C3)cc2)cc(C(N)=O)n1 [Compound 196] | < 1 nM |
| NC(=O)c1ncc(-c2ccc(S(=O)(=O)N3CC[C@@H](Nc4ccc(C(F)(F)F)cn4)[C@@H](O)C3)cc2)[nH]1 [Compound 197] | 1 to 10 nM |
| NC(=O)c1cc(-c2ccc(S(=O)(=O)N3CC[C@@H](Nc4ccc(C(F)(F)F)cn4)[C@@H](O)C3)cc2)cnn1 [Compound 198] | < 1 nM |
| N#Cc1cc(-c2ccc(S(=O)(=O)N3CC[C@@H](Nc4ccc(C(F)(F)F)cn4)[C@@H](O)C3)cc2)cnn1 [Compound 199] | 1 to 10 nM |
| O=S(=O)(c1ccc(-c2cnnc(N3CCOCC3)c2)cc1)N1CC[C@@H](Nc2ccc(C(F)(F)F)cn2)[C@@H](O)C1 [Compound 200] | < 1 nM |
| O=S(=O)(c1ccc(-c2cnnc(Cl)c2)cc1)N1CC[C@@H](Nc2ccc(C(F)(F)F)cn2)[C@@H](O)C1 [Compound 201] | < 1 nM |
| NC(=O)c1cc(-c2ccc(S(=O)(=O)N3CC[C@@H](Nc4ccc(C(F)(F)F)cn4)[C@@H](O)C3)cc2)cc(N)n1 [Compound 202] | < 1 nM |
| NC(=O)c1cc(-c2ccc(S(=O)(=O)N3CC[C@@H](Nc4ccc(C(F)(F)F)cn4)[C@@H](O)C3)cc2)cc(O)n1 [Compound 203] | < 1 nM |
| Cc1cnc(C(N)=O)c(C)c1-c1ccc(S(=O)(=O)N2CC[C@@H](Nc3ccc(C(F)(F)F)cn3)[C@@H](O)C2)cc1 [Compound 204] | < 1 nM |

| Structure (SMILES) | IC50 |
| --- | --- |
| Cc1cnc(CO)c(C)c1-c1ccc(S(=O)(=O)N2CC[C@@H](Nc3ccc(C(F)(F)F)cn3)[C@@H](O)C2)cc1 [Compound 205] | 1 to 10 nM |
| Cc1cc(-c2ccc(S(=O)(=O)N3CC[C@@H](Nc4ccc(C(F)(F)F)cn4)[C@@H](O)C3)cc2)cc(C(N)=O)n1 [Compound 206] | < 1 nM |
| NC(=O)Cc1cc(-c2ccc(S(=O)(=O)N3CC[C@@H](Nc4ccc(C(F)(F)F)cn4)[C@@H](O)C3)cc2)ccn1 [Compound 207] | 1 to 10 nM |
| O=C(O)c1cc(-c2ccc(S(=O)(=O)N3CC[C@@H](Nc4ccc(C(F)(F)F)cn4)[C@@H](O)C3)cc2)ccn1 [Compound 208] | 10 to 1000 nM |
| O=S(=O)(c1ccc(-c2cnc3[nH]ccc3c2Cl)cc1)N1CC[C@@H](Nc2ccc(C(F)(F)F)cn2)[C@@H](O)C1 [Compound 209] | < 1 nM |
| O=C1Nc2ncc(-c3ccc(S(=O)(=O)N4CC[C@@H](Nc5ccc(C(F)(F)F)cn5)[C@@H](O)C4)cc3)cc2C12CC2 [Compound 212] | < 1 nM |
| Cc1nnc(-c2cc(-c3ccc(S(=O)(=O)N4CC[C@@H](Nc5ccc(C(F)(F)F)cn5)[C@@H](O)C4)cc3)c(C)cn2)o1 [Compound 213] | < 1 nM |
| COc1cc(-c2ccc(S(=O)(=O)N3CC[C@@H](Nc4ccc(C(F)(F)F)cn4)[C@@H](O)C3)cc2)cc(-c2nnc(C)o2)n1 [Compound 214] | < 1 nM |
| Cc1c[nH]c(-c2cc(-c3ccc(S(=O)(=O)N4CC[C@@H](Nc5ccc(C(F)(F)F)cn5)[C@@H](O)C4)cc3)ccn2)n1 [Compound 215] | 1 to 10 nM |
| Nc1n[nH]c2ccc(-c3ccc(S(=O)(=O)N4CC[C@@H](Nc5ccc(C(F)(F)F)cn5)[C@@H](O)C4)cc3)cc12 [Example 1, (3S,4R)-1-((4-(3-amino-1H-indazol-5-yl)phenyl)sulfonyl)-4-((5-(trifluoromethyl)pyridin-2-yl)amino)piperidin-3-ol] | < 1 nM |
| O=C1CCc2cc(-c3ccc(S(=O)(=O)N4CC[C@@H](Nc5ccc(C(F)(F)F)cn5)[C@@H](O)C4)cc3)ccc2N1 [Example 2, 6-(4-(((3S,4R)-3-hydroxy-4-((5-(trifluoromethyl)pyridin-2-yl)amino)piperidin-1-yl)sulfonyl)phenyl)-3,4-dihydroquinolin-2(1H)-one] | < 1 nM |
| O=C1NCCc2ccc(-c3ccc(S(=O)(=O)N4CC[C@@H](Nc5ccc(C(F)(F)F)cn5)[C@@H](O)C4)cc3)cc21 [Example 3, 7-(4-(((3S,4R)-3-hydroxy-4-((5-(trifluoromethyl)pyridin-2-yl)amino)piperidin-1-yl)sulfonyl)phenyl)-3,4-dihydroisoquinolin-1(2H)-one] | < 1 nM |
| NC(=O)N1Cc2ccc(-c3ccc(S(=O)(=O)N4CC[C@@H](Nc5ccc(C(F)(F)F)cn5)[C@@H](O)C4)cc3)cc2C1 [Example 4, 5-(4-(((3S,4R)-3-hydroxy-4-((5-(trifluoromethyl)pyridin-2-yl)amino)piperidin-1-yl)sulfonyl)phenyl)isoindoline-2-carboxamide] | < 1 nM |
| O=c1[nH]ncc2cc(-c3ccc(S(=O)(=O)N4CC[C@@H](Nc5ccc(C(F)(F)F)cn5)[C@@H](O)C4)cc3)ccc12 [Example 5, 6-(4-(((3S,4R)-3-hydroxy-4-((5-(trifluoromethyl)pyridin-2-yl)amino)piperidin-1-yl)sulfonyl)phenyl)phthalazin-1(2H)-one] | < 1 nM |
| Cc1c(-c2ccc(S(=O)(=O)N3CC[C@@H](Nc4ccc(C(F)(F)F)cn4)[C@@H](O)C3)cc2)ccnc1C(N)=O [Example 6, 4-(4-(((3S,4R)-3-Hydroxy-4-((5-(trifluoromethyl)pyridin-2-yl)amino)piperidin-1-yl)sulfonyl)phenyl)-3-methylpicolinamide] | < 1 nM |
| NC(=O)c1cccc(-c2ccc(S(=O)(=O)N3CC[C@@H](Nc4ccc(C(F)(F)F)cn4)[C@@H](O)C3)cc2)n1 [Example 7, 6-(4-(((3S,4R)-3-Hydroxy-4-((5-(trifluoromethyl)pyridin-2-yl)amino)piperidin-1-yl)sulfonyl)phenyl)picolinamide] | < 1 nM |
| O=C1Cc2ccc(-c3ccc(S(=O)(=O)N4CC[C@@H](Nc5ccc(C(F)(F)F)cn5)[C@@H](O)C4)cc3)cc2CN1 [Example 8, 7-(4-(((3S,4R)-3-hydroxy-4-((5-(trifluoromethyl)pyridin-2-yl)amino)piperidin-1-yl)sulfonyl)phenyl)-1,4-dihydroisoquinolin-3(2H)-one] | < 1 nM |
